According to paper PMC10952897, “The Role of Cytochrome P450 AbyV in the Final Stages of Abyssomicin C Biosynthesis” (Angewandte Chemie (Weinheim an Der Bergstrasse, Germany), 2022):

Molecular target: T1, AbyV (Micromonospora maris, UniProt F4F6Q5)
T1 construct: N-terminal His6 tag (pOPINF::abyV), E. coli BL21(DE3)
Experiment: titration of substrate into buffered AbyV solution
Format: binding

T1 sequence (F4F6Q5 entry or part of it): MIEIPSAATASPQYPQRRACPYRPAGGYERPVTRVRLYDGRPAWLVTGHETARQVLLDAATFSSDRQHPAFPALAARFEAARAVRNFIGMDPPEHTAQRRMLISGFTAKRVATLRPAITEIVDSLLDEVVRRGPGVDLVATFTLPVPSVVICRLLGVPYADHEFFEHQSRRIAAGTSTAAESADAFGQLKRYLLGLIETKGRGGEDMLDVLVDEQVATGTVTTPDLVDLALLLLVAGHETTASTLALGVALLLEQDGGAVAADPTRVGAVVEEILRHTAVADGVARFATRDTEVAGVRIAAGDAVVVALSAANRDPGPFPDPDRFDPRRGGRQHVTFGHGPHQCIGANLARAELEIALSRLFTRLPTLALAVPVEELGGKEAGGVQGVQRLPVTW

Kd: 34 ± 7 µM
Compound: C[C@@H]1C[C@H](C)C(=O)/C=C/[C@@H]2C=C[C@H](C)C[C@@]23OC(=O)C(=C3O)C1=O (mixture of isomers) [compound 3, spirotetronate 3]
